According to PubChem BioAssay AID1845219 (Molecular Pharmacology Branch, DTP, NCI, 2023):

System: SYO-1 tumor spheroids, viability % test/control
Experiment: Anticancer human tumor SYO-1 cell line growth inhibition;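 also: spheroids exposed to agents for 7 days before viability read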;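 as to viability, T/C: 100% = DMSO vehicle control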
Details: spheroids with HUVEC and MSC; for IC50: curve of first compound; for viability, T/C: stronger effect = lower value
Summary of the method: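 Single agents and combinations were tested on spheroids built from tumor cells plus HUVEC and hMSC, at half-log dilutions starting at or near clinical Cmax, else 10 microM; final DMSO 0.25% (v/v).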

[1] = second compound 30 pM, first compound 0.0316 µM
[2] = second compound 30 pM, first compound 0.1 µM
[3] = second compound 30 pM, first compound 0.316 µM
[4] = second compound 30 pM, first compound 1 µM
[5] = second compound 30 pM, first compound 3.16 µM
[6] = second compound 30 pM, first compound 10 µM
[7] = second compound 94.9 pM, first compound 0.0316 µM
[8] = second compound 94.9 pM, first compound 0.1 µM
[9] = second compound 94.9 pM, first compound 0.316 µM
[10] = second compound 94.9 pM, first compound 1 µM
[11] = second compound 94.9 pM, first compound 3.16 µM
[12] = second compound 94.9 pM, first compound 10 µM
[13] = second compound 0.0003 µM, first compound 0.0316 µM
[14] = second compound 0.0003 µM, first compound 0.1 µM
[15] = second compound 0.0003 µM, first compound 0.316 µM
[16] = second compound 0.0003 µM, first compound 1 µM
[17] = second compound 0.0003 µM, first compound 3.16 µM
[18] = second compound 0.0003 µM, first compound 10 µM
[19] = second compound 0.000949 µM, first compound 0.0316 µM
[20] = second compound 0.000949 µM, first compound 0.1 µM
[21] = second compound 0.000949 µM, first compound 0.316 µM
[22] = second compound 0.000949 µM, first compound 1 µM
[23] = second compound 0.000949 µM, first compound 3.16 µM
[24] = second compound 0.000949 µM, first compound 10 µM
[25] = second compound 0.003 µM, first compound 0.0316 µM
[26] = second compound 0.003 µM, first compound 0.1 µM
[27] = second compound 0.003 µM, first compound 0.316 µM
[28] = second compound 0.003 µM, first compound 1 µM
[29] = second compound 0.003 µM, first compound 3.16 µM
[30] = second compound 0.003 µM, first compound 10 µM

CC(C)n1c(=O)n(C)c2cnc3cc(F)c(-c4ccc(OCCCN5CCCCC5)nc4)cc3c21 + COc1cc2c(cc1O)CCNC21CSC2c3c(OC(C)=O)c(C)c4c(c3C(COC1=O)N1C(O)C3Cc5cc(C)c(OC)c(O)c5C(C21)N3C)OCO4
IC50 (second compound 30 pM): 7380 nM
IC50 (second compound 94.9 pM): < 31.6 nM
IC50 (second compound 0.0003 µM): < 31.6 nM
IC50 (second compound 0.000949 µM): < 31.6 nM
IC50 (second compound 0.003 µM): < 31.6 nM
viability, T/C [1]: 99.7%
viability, T/C [2]: 97.7%
viability, T/C [3]: 98%
viability, T/C [4]: 99.4%
viability, T/C [5]: 89.7%
viability, T/C [6]: 35.5%
viability, T/C [7]: 37.6%
viability, T/C [8]: 33.4%
viability, T/C [9]: 43.2%
viability, T/C [10]: 52.4%
viability, T/C [11]: 50%
viability, T/C [12]: 21.6%
viability, T/C [13]: 2.89%
viability, T/C [14]: 2.78%
viability, T/C [15]: 3.15%
viability, T/C [16]: 3.23%
viability, T/C [17]: 2.46%
viability, T/C [18]: 0.62%
viability, T/C [19]: 0.98%
viability, T/C [20]: 1.01%
viability, T/C [21]: 0.98%
viability, T/C [22]: 1.04%
viability, T/C [23]: 0.96%
viability, T/C [24]: 0.32%
viability, T/C [25]: 0.12%
viability, T/C [26]: 0.12%
viability, T/C [27]: 0.12%
viability, T/C [28]: 0.13%
viability, T/C [29]: 0.13%
viability, T/C [30]: 0.22%

CC1COCCN1c1cc(-c2ccnn2C)c2ccnc(-c3ccn[nH]3)c2n1 (stereo not given) + COc1cc2c(cc1O)CCNC21CSC2c3c(OC(C)=O)c(C)c4c(c3C(COC1=O)N1C(O)C3Cc5cc(C)c(OC)c(O)c5C(C21)N3C)OCO4
IC50 (second compound 30 pM): < 31.6 nM
IC50 (second compound 94.9 pM): < 31.6 nM
IC50 (second compound 0.0003 µM): < 31.6 nM
IC50 (second compound 0.000949 µM): < 31.6 nM
IC50 (second compound 0.003 µM): < 31.6 nM
viability, T/C [1]: 3.62%
viability, T/C [2]: 1.79%
viability, T/C [3]: 1.29%
viability, T/C [4]: 0.95%
viability, T/C [5]: 0.42%
viability, T/C [6]: 0.48%
viability, T/C [7]: 1.83%
viability, T/C [8]: 1.41%
viability, T/C [9]: 1.17%
viability, T/C [10]: 0.6%
viability, T/C [11]: 0.3%
viability, T/C [12]: 0.41%
viability, T/C [13]: 1.24%
viability, T/C [14]: 1.22%
viability, T/C [15]: 0.9%
viability, T/C [16]: 0.63%
viability, T/C [17]: 0.26%
viability, T/C [18]: 0.29%
viability, T/C [19]: 1.03%
viability, T/C [20]: 0.61%
viability, T/C [21]: 0.54%
viability, T/C [22]: 0.31%
viability, T/C [23]: 0.2%
viability, T/C [24]: 0.19%
viability, T/C [25]: 0.11%
viability, T/C [26]: 0.11%
viability, T/C [27]: 0.09%
viability, T/C [28]: 0.09%
viability, T/C [29]: 0.1%
viability, T/C [30]: 0.16%

COc1cc(C)[nH]c(=O)c1CN1CCc2c(Cl)cc(C(OC)C3COC3)c(Cl)c2C1=O (stereo not given) + COc1cc2c(cc1O)CCNC21CSC2c3c(OC(C)=O)c(C)c4c(c3C(COC1=O)N1C(O)C3Cc5cc(C)c(OC)c(O)c5C(C21)N3C)OCO4
IC50 (second compound 30 pM): 1490 nM
IC50 (second compound 94.9 pM): 198 nM
IC50 (second compound 0.0003 µM): < 31.6 nM
IC50 (second compound 0.000949 µM): < 31.6 nM
IC50 (second compound 0.003 µM): < 31.6 nM
viability, T/C [1]: 104%
viability, T/C [2]: 104%
viability, T/C [3]: 79.3%
viability, T/C [4]: 55.3%
viability, T/C [5]: 42.5%
viability, T/C [6]: 40.5%
viability, T/C [7]: 94%
viability, T/C [8]: 65.8%
viability, T/C [9]: 39.9%
viability, T/C [10]: 20.9%
viability, T/C [11]: 16.5%
viability, T/C [12]: 11.5%
viability, T/C [13]: 6.74%
viability, T/C [14]: 4%
viability, T/C [15]: 3.76%
viability, T/C [16]: 3.14%
viability, T/C [17]: 2.73%
viability, T/C [18]: 2.74%
viability, T/C [19]: 0.89%
viability, T/C [20]: 0.96%
viability, T/C [21]: 0.72%
viability, T/C [22]: 0.67%
viability, T/C [23]: 0.86%
viability, T/C [24]: 0.76%
viability, T/C [25]: 0.11%
viability, T/C [26]: 0.09%
viability, T/C [27]: 0.1%
viability, T/C [28]: 0.11%
viability, T/C [29]: 0.11%
viability, T/C [30]: 0.17%

COc1ccc([C@@H](O)c2cc(-c3ncnc4cc(N5CCOCC5)ccc34)c(F)cc2Cl)nn1 + COc1cc2c(cc1O)CCNC21CSC2c3c(OC(C)=O)c(C)c4c(c3C(COC1=O)N1C(O)C3Cc5cc(C)c(OC)c(O)c5C(C21)N3C)OCO4
IC50 (second compound 30 pM): 3170 nM
IC50 (second compound 94.9 pM): 772 nM
IC50 (second compound 0.0003 µM): < 31.6 nM
IC50 (second compound 0.000949 µM): < 31.6 nM
IC50 (second compound 0.003 µM): < 31.6 nM
viability, T/C [1]: 104%
viability, T/C [2]: 103%
viability, T/C [3]: 105%
viability, T/C [4]: 102%
viability, T/C [5]: 50.1%
viability, T/C [6]: 2.83%
viability, T/C [7]: 97.7%
viability, T/C [8]: 103%
viability, T/C [9]: 94.9%
viability, T/C [10]: 37%
viability, T/C [11]: 5.43%
viability, T/C [12]: 7.51%
viability, T/C [13]: 12.2%
viability, T/C [14]: 9.57%
viability, T/C [15]: 3.06%
viability, T/C [16]: 1.34%
viability, T/C [17]: 0.26%
viability, T/C [18]: 0.17%
viability, T/C [19]: 0.88%
viability, T/C [20]: 0.86%
viability, T/C [21]: 0.54%
viability, T/C [22]: 0.23%
viability, T/C [23]: 0.03%
viability, T/C [24]: 0.15%
viability, T/C [25]: 0.12%
viability, T/C [26]: 0.12%
viability, T/C [27]: 0.1%
viability, T/C [28]: 0.24%
viability, T/C [29]: 0.38%
viability, T/C [30]: 1.5%

Cc1cc(C)c(CNC(=O)c2cc(-c3ccc(CN4CCOCC4)cc3)cc3c2cnn3C2CCCC2)c(=O)[nH]1 + COc1cc2c(cc1O)CCNC21CSC2c3c(OC(C)=O)c(C)c4c(c3C(COC1=O)N1C(O)C3Cc5cc(C)c(OC)c(O)c5C(C21)N3C)OCO4
IC50 (second compound 30 pM): > 10000 nM
IC50 (second compound 94.9 pM): 7980 nM
IC50 (second compound 0.0003 µM): < 31.6 nM
IC50 (second compound 0.000949 µM): < 31.6 nM
IC50 (second compound 0.003 µM): < 31.6 nM
viability, T/C [1]: 103%
viability, T/C [2]: 97.2%
viability, T/C [3]: 100%
viability, T/C [4]: 103%
viability, T/C [5]: 107%
viability, T/C [6]: 96.3%
viability, T/C [7]: 102%
viability, T/C [8]: 96.3%
viability, T/C [9]: 99.2%
viability, T/C [10]: 99.8%
viability, T/C [11]: 84.5%
viability, T/C [12]: 41.1%
viability, T/C [13]: 18.4%
viability, T/C [14]: 14.3%
viability, T/C [15]: 13.3%
viability, T/C [16]: 11%
viability, T/C [17]: 12.2%
viability, T/C [18]: 3.97%
viability, T/C [19]: 0.91%
viability, T/C [20]: 0.86%
viability, T/C [21]: 1.11%
viability, T/C [22]: 0.97%
viability, T/C [23]: 0.9%
viability, T/C [24]: 1.08%
viability, T/C [25]: 0.13%
viability, T/C [26]: 0.13%
viability, T/C [27]: 0.13%
viability, T/C [28]: 0.15%
viability, T/C [29]: 0.14%
viability, T/C [30]: 0.2%

[2H]c1nc(C)nc([2H])c1-c1cc(NC[C@@H](C)c2cccc3c(C(=O)NC)ccnc23)ncn1 + COc1cc2c(cc1O)CCNC21CSC2c3c(OC(C)=O)c(C)c4c(c3C(COC1=O)N1C(O)C3Cc5cc(C)c(OC)c(O)c5C(C21)N3C)OCO4
IC50 (second compound 30 pM): > 10000 nM
IC50 (second compound 94.9 pM): > 10000 nM
IC50 (second compound 0.0003 µM): < 31.6 nM
IC50 (second compound 0.000949 µM): < 31.6 nM
IC50 (second compound 0.003 µM): < 31.6 nM
viability, T/C [1]: 95.9%
viability, T/C [2]: 101%
viability, T/C [3]: 102%
viability, T/C [4]: 102%
viability, T/C [5]: 104%
viability, T/C [6]: 102%
viability, T/C [7]: 97.7%
viability, T/C [8]: 97.1%
viability, T/C [9]: 99.6%
viability, T/C [10]: 98.8%
viability, T/C [11]: 100%
viability, T/C [12]: 95.7%
viability, T/C [13]: 10.9%
viability, T/C [14]: 11.6%
viability, T/C [15]: 12.2%
viability, T/C [16]: 11.5%
viability, T/C [17]: 13.1%
viability, T/C [18]: 5.66%
viability, T/C [19]: 0.9%
viability, T/C [20]: 0.98%
viability, T/C [21]: 0.92%
viability, T/C [22]: 0.87%
viability, T/C [23]: 0.92%
viability, T/C [24]: 0.94%
viability, T/C [25]: 0.96%
viability, T/C [26]: 1.13%
viability, T/C [27]: 4.62%
viability, T/C [28]: 0.12%
viability, T/C [29]: 0.12%
viability, T/C [30]: 0.2%
